In ChEMBL document CHEMBL1201862, “PubChem BioAssay data set” (2004):
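Where inhibition never reached the appropriate level, the endpoint shown equals the highest concentration tested. Otherwise, values were interpolated linearly from a five-concentration, 48-hour dose response in 96-well plates. The concentration for 50% growth inhibition is given as GI50.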 Active and inactive are the calls of the source. Rule as the data show it: active = GI50 up to about 1.1 µM and inactive = higher.

Assays:
Assay in all cases: inhibition of tumour cell growth, NCI panel, 48 h
[1] = tested on: ACHN
[2] = tested on: CAKI-1
[3] = tested on: HL-60
[4] = tested on: HOP-92
[5] = tested on: HT-29
[6] = tested on: KM-20L2
[7] = tested on: KM12
[8] = tested on: NCI-H23
[9] = tested on: NCI-H460
[10] = tested on: OVCAR-4
[11] = tested on: OVCAR-5
[12] = tested on: SF-295
[13] = tested on: SNB-19
[14] = tested on: SNB-78
[15] = tested on: SW-620
[16] = tested on: UACC-257
[17] = tested on: UACC-62

Measured: GI50

CCOC(=O)C(=O)Nc1c(C)cccc1CC
inactive: [1] > 100 µM | [2] > 100 µM | [3] > 100 µM | [4] > 100 µM | [5] > 100 µM | [6] > 100 µM | [7] > 100 µM | [8] > 100 µM | [9] > 100 µM | [10] > 100 µM | [11] > 100 µM | [12] > 100 µM | [13] > 100 µM | [14] > 100 µM | [15] > 100 µM | [16] > 100 µM | [17] > 100 µM

COCOCC/C=C/C=O
inactive: [1] > 100 µM | [3] > 100 µM | [4] > 100 µM | [5] > 100 µM | [6] > 100 µM | [7] > 100 µM | [8] > 100 µM | [9] > 100 µM | [11] > 100 µM | [12] > 100 µM | [13] > 100 µM | [14] > 100 µM | [15] > 100 µM | [16] > 100 µM | [17] > 100 µM

CCOC(=O)C1C(NC(N)=O)N(Cc2ccccc2)C(=O)N1Cc1ccccc1 (configuration not stated)
inactive: [1] > 100 µM | [2] > 100 µM | [3] > 100 µM | [4] > 100 µM | [5] > 100 µM | [6] 41.3 µM | [7] > 100 µM | [8] > 10 µM | [9] > 100 µM | [10] > 100 µM | [11] 29.3 µM | [12] > 100 µM | [13] > 100 µM | [14] 15.4 µM | [15] > 100 µM | [16] > 100 µM | [17] > 100 µM

CC1CC[C@]2(C(=O)O)CCC3(C)C(=CC(=O)C4[C@@]5(C)CCC(=O)C(C)(C)C5CC[C@]43C)[C@@H]2[C@H]1C (some centres not stated)
inactive: [1] 21 µM | [2] 39.8 µM | [3] 4.75 µM | [4] 25 µM | [5] 28.4 µM | [6] > 10 µM | [7] 18.7 µM | [8] 25.1 µM | [9] 26.2 µM | [10] 35.2 µM | [12] 31 µM | [13] 40.5 µM | [14] 46.2 µM | [15] 39.9 µM | [16] 23.2 µM | [17] 13.2 µM

O=C1/C(=C/c2cccc([N+](=O)[O-])c2)COc2ccccc21
active: [15] 1.11 µM
inactive: [1] 5.13 µM | [2] 5.33 µM | [3] 2.08 µM | [4] 19.1 µM | [5] 2.36 µM | [6] 4.99 µM | [7] 2.5 µM | [8] 6.76 µM | [9] 15.6 µM | [10] 2.49 µM | [11] > 35 µM | [12] 11.2 µM | [13] 2.82 µM | [14] 6.53 µM | [16] 7.69 µM | [17] 1.67 µM

CN(C)CC(C)(C)C(=O)/C=C/c1ccccc1
inactive: [1] 17.9 µM | [2] 15.8 µM | [3] 5.58 µM | [4] 8.41 µM | [5] 15.8 µM | [6] 15.3 µM | [7] 14.1 µM | [8] 19.9 µM | [9] 13.9 µM | [10] 14.2 µM | [12] 17.5 µM | [13] 15.8 µM | [14] 14.7 µM | [15] 14.5 µM | [16] 12.8 µM | [17] 13.2 µM

O=C(O)[C@@H]1CCCC[C@@H]1C(=O)N(C1CCCCC1)C1CCCCC1
inactive: [1] > 100 µM | [2] > 100 µM | [3] > 100 µM | [4] > 100 µM | [5] > 100 µM | [6] > 100 µM | [7] > 100 µM | [8] > 100 µM | [9] > 100 µM | [10] > 100 µM | [11] > 100 µM | [12] > 100 µM | [14] > 100 µM | [15] > 100 µM | [16] > 100 µM | [17] > 100 µM

NC(=S)N/N=C(\CC1OC(=O)c2ccccc21)c1ccc(Cl)cc1 (configuration not stated)
inactive: [1] 56.1 µM | [2] 36.3 µM | [3] 98.2 µM | [4] 23.1 µM | [5] 27.2 µM | [6] 47 µM | [7] 22 µM | [8] 25.2 µM | [9] 34.3 µM | [10] 23.1 µM | [11] 92.9 µM | [12] 41.9 µM | [13] 42.7 µM | [14] 36.9 µM | [15] 44.8 µM | [16] 46.7 µM | [17] 19.6 µM

CC(=O)NC(CCCN(Cc1ccccc1)C(=O)N(CCCl)N=O)C(=O)NCc1ccccc1 (configuration not stated)
inactive: [1] 10.8 µM | [2] 7.5 µM | [3] 8.71 µM | [4] 36 µM | [5] > 57.5 µM | [6] 59.6 µM | [7] 60.5 µM | [8] 27 µM | [9] 3.32 µM | [10] > 95.3 µM | [11] 35.2 µM | [12] 6.19 µM | [13] 17.8 µM | [14] 54.1 µM | [15] 16.2 µM | [16] 50 µM | [17] 2.24 µM

Cc1cc(OCC(O)CO)ccc1-c1ccccc1 (configuration not stated)
inactive: [1] > 100 µM | [2] > 100 µM | [3] 61.1 µM | [4] 92.5 µM | [5] 70.1 µM | [6] > 100 µM | [7] > 100 µM | [8] > 100 µM | [9] > 100 µM | [10] > 100 µM | [13] > 100 µM | [14] > 100 µM | [15] 6.65 µM | [16] 52.5 µM | [17] > 100 µM

CC1(C)C(=O)C(C)(C)C1=NNC(N)=S
inactive: [1] > 100 µM | [2] > 100 µM | [3] > 100 µM | [4] > 100 µM | [5] > 100 µM | [6] > 100 µM | [7] > 100 µM | [8] > 100 µM | [9] > 100 µM | [10] > 100 µM | [11] > 100 µM | [12] > 100 µM | [13] > 100 µM | [14] > 100 µM | [15] > 100 µM | [16] > 100 µM | [17] > 100 µM

COc1ccccc1NC(=O)C(CC(C(=O)Nc1ccccc1OC)/C(C)=N/Nc1ccc([N+](=O)[O-])cc1[N+](=O)[O-])/C(C)=N/Nc1ccc([N+](=O)[O-])cc1[N+](=O)[O-] (configuration not stated)
inactive: [1] > 86.1 µM | [2] 41 µM | [3] 41.5 µM | [4] 54.3 µM | [5] > 100 µM | [6] > 100 µM | [7] 58.5 µM | [8] > 83.8 µM | [9] > 100 µM | [10] > 81.3 µM | [11] > 100 µM | [12] > 93.1 µM | [13] > 100 µM | [14] > 100 µM | [15] > 94.8 µM | [16] > 72.3 µM | [17] > 100 µM
